According to the kinase profiling compilation of Christmann-Franck et al. (2016):

Key:
Experiment in all cases: KINOMEscan competition binding
Conditions in all cases: compound 10.0 µM
[1] = molecular target: TSSK1B (human) (UniProt Q9BXA7)
[2] = molecular target: DDR1 (human) (UniProt Q08345)
[3] = molecular target: CAMK2B (human) (UniProt Q13554)
[4] = molecular target: ROCK2 (human) (UniProt O75116)
[5] = molecular target: FES (human) (UniProt P07332)
[6] = tested on: RET (human), P07949 [V804L]
[7] = molecular target: MYLK2 (human) (UniProt Q9H1R3)
Chain of MYLK2 (human) (Q9H1R3 whole entry, looked up): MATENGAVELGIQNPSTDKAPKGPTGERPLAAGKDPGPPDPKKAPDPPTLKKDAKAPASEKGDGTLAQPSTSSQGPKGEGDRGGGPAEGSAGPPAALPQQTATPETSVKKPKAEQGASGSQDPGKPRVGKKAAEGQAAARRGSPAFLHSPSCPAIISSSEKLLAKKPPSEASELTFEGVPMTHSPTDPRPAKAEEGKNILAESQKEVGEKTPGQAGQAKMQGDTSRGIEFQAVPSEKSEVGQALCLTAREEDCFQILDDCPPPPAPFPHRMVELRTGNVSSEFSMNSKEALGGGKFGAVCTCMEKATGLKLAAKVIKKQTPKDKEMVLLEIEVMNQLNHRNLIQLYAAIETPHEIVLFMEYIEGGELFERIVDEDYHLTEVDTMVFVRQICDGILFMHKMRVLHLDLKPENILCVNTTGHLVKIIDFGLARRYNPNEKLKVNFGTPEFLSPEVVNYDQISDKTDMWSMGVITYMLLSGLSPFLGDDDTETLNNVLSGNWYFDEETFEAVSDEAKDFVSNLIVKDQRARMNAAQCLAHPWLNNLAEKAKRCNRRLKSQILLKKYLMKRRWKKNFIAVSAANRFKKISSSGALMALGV

[8] = molecular target: MAP3K9 (human) (UniProt P80192)
[9] = molecular target: NUAK1 (human) (UniProt O60285)
[10] = molecular target: PRKCH (human) (UniProt P24723)
[11] = molecular target: PRKG1 (human) (UniProt Q13976)
[12] = molecular target: MAPKAPK5 (human) (UniProt Q8IW41)
[13] = molecular target: BRSK1 (human) (UniProt Q8TDC3)
Chain of BRSK1 (human) (Q8TDC3 whole entry, looked up): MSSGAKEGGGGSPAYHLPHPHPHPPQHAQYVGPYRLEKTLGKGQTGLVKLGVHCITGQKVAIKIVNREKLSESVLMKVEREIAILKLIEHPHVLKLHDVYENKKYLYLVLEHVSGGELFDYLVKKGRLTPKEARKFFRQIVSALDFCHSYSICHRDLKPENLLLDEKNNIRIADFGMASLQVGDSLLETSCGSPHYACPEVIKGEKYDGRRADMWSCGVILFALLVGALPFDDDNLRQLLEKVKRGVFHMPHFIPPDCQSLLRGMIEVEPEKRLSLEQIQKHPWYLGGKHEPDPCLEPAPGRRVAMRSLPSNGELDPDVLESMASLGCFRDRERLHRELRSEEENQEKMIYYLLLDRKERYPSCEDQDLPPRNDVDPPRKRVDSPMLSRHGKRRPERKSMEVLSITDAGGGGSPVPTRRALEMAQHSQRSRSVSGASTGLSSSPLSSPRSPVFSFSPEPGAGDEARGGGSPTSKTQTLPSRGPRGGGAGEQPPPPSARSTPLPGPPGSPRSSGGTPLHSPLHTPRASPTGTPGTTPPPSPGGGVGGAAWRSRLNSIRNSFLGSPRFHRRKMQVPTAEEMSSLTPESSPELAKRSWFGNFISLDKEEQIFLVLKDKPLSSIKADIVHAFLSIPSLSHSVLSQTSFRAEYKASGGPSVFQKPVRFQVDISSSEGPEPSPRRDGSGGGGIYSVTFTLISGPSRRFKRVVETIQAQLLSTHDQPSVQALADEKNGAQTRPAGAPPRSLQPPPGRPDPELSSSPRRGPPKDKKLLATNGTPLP

[14] = molecular target: TLK2 (human) (UniProt Q86UE8)
[15] = molecular target: CDKL2 (human) (UniProt Q92772)
[16] = molecular target: NLK (human) (UniProt Q9UBE8)
[17] = molecular target: CDK18 (human) (UniProt Q07002)
[18] = molecular target: CDK5 (human) (UniProt Q00535)
Chain of CDK5 (human) (Q00535 whole entry, looked up): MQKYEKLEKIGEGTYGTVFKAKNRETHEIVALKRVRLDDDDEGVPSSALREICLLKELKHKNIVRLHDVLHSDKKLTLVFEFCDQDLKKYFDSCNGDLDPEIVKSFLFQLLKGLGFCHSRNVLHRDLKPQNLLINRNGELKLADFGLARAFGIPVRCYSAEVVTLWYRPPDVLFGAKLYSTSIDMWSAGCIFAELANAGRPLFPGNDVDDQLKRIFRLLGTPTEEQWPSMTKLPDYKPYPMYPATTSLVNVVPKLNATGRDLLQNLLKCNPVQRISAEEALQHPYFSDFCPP

[19] = molecular target: NEK5 (human) (UniProt Q6P3R8)
[20] = tested on: EGFR (human), P00533 [752-759 del]
[21] = molecular target: PTK2 (human) (UniProt Q05397)
[22] = tested on: EGFR (human), P00533 [G719C; 746-750 del]
[23] = molecular target: EPHB4 (human) (UniProt P54760)
Chain of EPHB4 (human) (P54760 whole entry, looked up): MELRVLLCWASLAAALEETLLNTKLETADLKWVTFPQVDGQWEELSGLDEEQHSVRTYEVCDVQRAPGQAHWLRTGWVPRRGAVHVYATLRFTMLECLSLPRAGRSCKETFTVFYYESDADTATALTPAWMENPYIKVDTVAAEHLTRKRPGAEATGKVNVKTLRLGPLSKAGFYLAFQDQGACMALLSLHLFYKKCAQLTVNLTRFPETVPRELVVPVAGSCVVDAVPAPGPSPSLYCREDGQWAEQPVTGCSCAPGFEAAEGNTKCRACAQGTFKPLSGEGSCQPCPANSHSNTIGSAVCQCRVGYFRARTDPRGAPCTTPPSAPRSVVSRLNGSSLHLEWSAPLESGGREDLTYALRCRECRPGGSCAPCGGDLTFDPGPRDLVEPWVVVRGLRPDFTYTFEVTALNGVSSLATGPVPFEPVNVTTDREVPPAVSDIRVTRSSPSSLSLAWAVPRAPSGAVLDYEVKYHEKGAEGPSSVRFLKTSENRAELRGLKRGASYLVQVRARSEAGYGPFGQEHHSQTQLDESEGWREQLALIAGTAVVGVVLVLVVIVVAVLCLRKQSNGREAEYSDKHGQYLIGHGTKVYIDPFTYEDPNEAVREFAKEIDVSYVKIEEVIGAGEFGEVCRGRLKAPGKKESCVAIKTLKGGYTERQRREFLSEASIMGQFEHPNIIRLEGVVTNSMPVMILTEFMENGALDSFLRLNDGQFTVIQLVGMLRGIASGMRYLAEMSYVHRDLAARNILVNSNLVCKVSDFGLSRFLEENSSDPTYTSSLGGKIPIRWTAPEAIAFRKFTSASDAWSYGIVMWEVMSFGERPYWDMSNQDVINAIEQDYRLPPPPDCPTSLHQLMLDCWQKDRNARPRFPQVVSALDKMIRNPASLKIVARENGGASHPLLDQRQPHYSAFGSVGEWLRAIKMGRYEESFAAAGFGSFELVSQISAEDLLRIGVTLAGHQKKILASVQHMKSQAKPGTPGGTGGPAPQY

[24] = molecular target: EPHA7 (human) (UniProt Q15375)
[25] = molecular target: NUAK2 (human) (UniProt Q9H093)
[26] = molecular target: INSR (human) (UniProt P06213)
[27] = molecular target: NEK1 (human) (UniProt Q96PY6)
[28] = molecular target: SIK2 (human) (UniProt Q9H0K1)
[29] = molecular target: CDK17 (human) (UniProt Q00537)
Chain of CDK17 (human) (Q00537 whole entry, looked up): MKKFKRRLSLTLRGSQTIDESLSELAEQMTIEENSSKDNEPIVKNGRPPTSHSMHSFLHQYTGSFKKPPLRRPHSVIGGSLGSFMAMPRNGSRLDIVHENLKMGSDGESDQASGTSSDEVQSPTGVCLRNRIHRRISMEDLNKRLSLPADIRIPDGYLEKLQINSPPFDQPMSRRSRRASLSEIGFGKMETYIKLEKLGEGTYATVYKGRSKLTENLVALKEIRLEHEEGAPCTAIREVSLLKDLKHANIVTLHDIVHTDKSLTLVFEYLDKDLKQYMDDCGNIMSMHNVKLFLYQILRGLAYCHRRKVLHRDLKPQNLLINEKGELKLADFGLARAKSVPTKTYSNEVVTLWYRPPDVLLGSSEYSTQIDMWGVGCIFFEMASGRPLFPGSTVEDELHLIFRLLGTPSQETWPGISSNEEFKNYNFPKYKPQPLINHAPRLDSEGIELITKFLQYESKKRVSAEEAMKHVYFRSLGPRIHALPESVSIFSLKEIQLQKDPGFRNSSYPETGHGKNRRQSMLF

[30] = tested on: ABL1 (human), P00519 [M351T]
[31] = molecular target: MARK3 (human) (UniProt P27448)
[32] = molecular target: PLK3 (human) (UniProt Q9H4B4)
[33] = molecular target: TYK2 JH1 catalytic (human) (UniProt P29597)
[34] = molecular target: MET (human) (UniProt P08581)
[35] = molecular target: IKBKE (human) (UniProt Q14164)
[36] = molecular target: STK10 (human) (UniProt O94804)
[37] = molecular target: RPS6KA6 KD1 (human) (UniProt Q9UK32)
[38] = molecular target: NTRK2 (human) (UniProt Q16620)
[39] = molecular target: MAPK10 (human) (UniProt P53779)
[40] = molecular target: RPS6KA3 KD1 (human) (UniProt P51812)
[41] = molecular target: ACVRL1 (human) (UniProt P37023)
Chain of ACVRL1 (human) (P37023 whole entry, looked up): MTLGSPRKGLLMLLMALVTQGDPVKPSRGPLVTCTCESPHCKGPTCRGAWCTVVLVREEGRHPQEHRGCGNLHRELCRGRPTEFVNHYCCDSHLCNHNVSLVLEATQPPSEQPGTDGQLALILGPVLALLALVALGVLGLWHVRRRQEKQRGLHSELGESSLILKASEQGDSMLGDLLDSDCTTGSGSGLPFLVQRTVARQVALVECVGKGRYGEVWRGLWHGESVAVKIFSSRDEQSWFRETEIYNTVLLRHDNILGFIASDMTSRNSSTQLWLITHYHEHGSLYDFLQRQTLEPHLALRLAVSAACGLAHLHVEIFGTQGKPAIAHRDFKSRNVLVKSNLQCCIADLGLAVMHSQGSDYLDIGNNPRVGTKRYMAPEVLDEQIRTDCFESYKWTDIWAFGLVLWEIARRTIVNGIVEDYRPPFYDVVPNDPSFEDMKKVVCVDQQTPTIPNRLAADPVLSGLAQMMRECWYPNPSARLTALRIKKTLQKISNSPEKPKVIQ

[42] = molecular target: STK35 (human) (UniProt Q8TDR2)

Chain of ROCK2 (human) (O75116 whole entry, looked up): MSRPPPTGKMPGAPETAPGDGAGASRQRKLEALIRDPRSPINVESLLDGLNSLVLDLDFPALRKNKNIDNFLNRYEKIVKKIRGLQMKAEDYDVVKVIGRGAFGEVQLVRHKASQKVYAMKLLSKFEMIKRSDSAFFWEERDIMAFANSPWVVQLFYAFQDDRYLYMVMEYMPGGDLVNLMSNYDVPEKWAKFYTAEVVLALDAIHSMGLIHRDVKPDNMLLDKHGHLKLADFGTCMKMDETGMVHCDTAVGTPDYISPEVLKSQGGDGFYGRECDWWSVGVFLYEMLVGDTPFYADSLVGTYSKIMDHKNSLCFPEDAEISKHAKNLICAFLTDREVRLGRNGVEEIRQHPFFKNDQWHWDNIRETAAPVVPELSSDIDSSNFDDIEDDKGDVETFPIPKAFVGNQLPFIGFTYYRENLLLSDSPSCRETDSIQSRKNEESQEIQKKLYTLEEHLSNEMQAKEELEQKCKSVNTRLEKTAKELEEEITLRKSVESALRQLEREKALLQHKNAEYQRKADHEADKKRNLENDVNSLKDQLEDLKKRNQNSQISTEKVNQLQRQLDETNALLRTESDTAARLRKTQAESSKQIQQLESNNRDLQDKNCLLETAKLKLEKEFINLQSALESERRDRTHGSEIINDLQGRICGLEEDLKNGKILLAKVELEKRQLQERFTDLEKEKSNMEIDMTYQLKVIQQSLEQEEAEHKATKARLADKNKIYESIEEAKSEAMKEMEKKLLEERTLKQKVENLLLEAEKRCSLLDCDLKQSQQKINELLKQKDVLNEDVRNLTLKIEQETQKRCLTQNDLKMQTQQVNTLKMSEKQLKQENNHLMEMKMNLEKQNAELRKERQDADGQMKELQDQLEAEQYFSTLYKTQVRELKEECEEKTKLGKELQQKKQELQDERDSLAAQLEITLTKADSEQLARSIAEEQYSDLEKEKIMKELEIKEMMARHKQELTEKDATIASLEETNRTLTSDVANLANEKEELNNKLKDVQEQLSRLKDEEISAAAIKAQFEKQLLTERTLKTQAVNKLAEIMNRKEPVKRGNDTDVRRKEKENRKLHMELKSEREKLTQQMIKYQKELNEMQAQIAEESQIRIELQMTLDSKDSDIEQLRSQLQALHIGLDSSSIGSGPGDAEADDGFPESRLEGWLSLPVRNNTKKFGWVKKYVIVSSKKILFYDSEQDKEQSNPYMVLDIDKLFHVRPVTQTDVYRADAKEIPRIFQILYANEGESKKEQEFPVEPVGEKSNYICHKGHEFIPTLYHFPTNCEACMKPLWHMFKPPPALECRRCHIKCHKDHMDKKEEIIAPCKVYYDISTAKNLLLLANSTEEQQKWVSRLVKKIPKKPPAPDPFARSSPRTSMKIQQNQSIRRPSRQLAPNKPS

O=C1NC(=O)/C(=C/c2c[nH]c(=O)c(-c3ccc(N4CCNCC4)nc3)c2)S1 was tested. Which kinase still bound, per cent of control [1] did it give?
The kinase still bound, per cent of control was 2.9%.

What about the kinase still bound, per cent of control [2] of the same molecule?
Its kinase still bound, per cent of control is 100%.

And the kinase still bound, per cent of control [3]?
The kinase still bound, per cent of control was 47%.

What about the kinase still bound, per cent of control [4] of the same molecule?
Its kinase still bound, per cent of control is 56%.

And the kinase still bound, per cent of control [5]?
The kinase still bound, per cent of control was 100%.

And the kinase still bound, per cent of control [6]?
Its kinase still bound, per cent of control is 70%.

What about the kinase still bound, per cent of control [7] of the same molecule?
The kinase still bound, per cent of control was 14%.

And the kinase still bound, per cent of control [8]?
The kinase still bound, per cent of control was 94%.

And the kinase still bound, per cent of control [9]?
The kinase still bound, per cent of control was 77%.

And the kinase still bound, per cent of control [10]?
The kinase still bound, per cent of control was 100%.

What about the kinase still bound, per cent of control [11] of the same molecule?
Its kinase still bound, per cent of control is 100%.

What about the kinase still bound, per cent of control [12] of the same molecule?
The kinase still bound, per cent of control was 84%.

What about the kinase still bound, per cent of control [13] of the same molecule?
The kinase still bound, per cent of control was 100%.

And the kinase still bound, per cent of control [14]?
Its kinase still bound, per cent of control is 99%.

And the kinase still bound, per cent of control [15]?
The kinase still bound, per cent of control was 67%.

And the kinase still bound, per cent of control [16]?
Its kinase still bound, per cent of control is 97%.

What about the kinase still bound, per cent of control [17] of the same molecule?
The kinase still bound, per cent of control was 82%.

What about the kinase still bound, per cent of control [18] of the same molecule?
The kinase still bound, per cent of control was 100%.

What about the kinase still bound, per cent of control [19] of the same molecule?
Its kinase still bound, per cent of control is 100%.

What about the kinase still bound, per cent of control [20] of the same molecule?
Its kinase still bound, per cent of control is 95%.

And the kinase still bound, per cent of control [21]?
The kinase still bound, per cent of control was 79%.

And the kinase still bound, per cent of control [22]?
The kinase still bound, per cent of control was 95%.

What about the kinase still bound, per cent of control [23] of the same molecule?
Its kinase still bound, per cent of control is 100%.

What about the kinase still bound, per cent of control [24] of the same molecule?
Its kinase still bound, per cent of control is 97%.

What about the kinase still bound, per cent of control [25] of the same molecule?
The kinase still bound, per cent of control was 37%.

What about the kinase still bound, per cent of control [26] of the same molecule?
Its kinase still bound, per cent of control is 54%.

What about the kinase still bound, per cent of control [27] of the same molecule?
The kinase still bound, per cent of control was 73%.

And the kinase still bound, per cent of control [28]?
The kinase still bound, per cent of control was 76%.

And the kinase still bound, per cent of control [29]?
The kinase still bound, per cent of control was 85%.

And the kinase still bound, per cent of control [30]?
The kinase still bound, per cent of control was 49%.

And the kinase still bound, per cent of control [31]?
The kinase still bound, per cent of control was 100%.

What about the kinase still bound, per cent of control [32] of the same molecule?
The kinase still bound, per cent of control was 85%.

What about the kinase still bound, per cent of control [33] of the same molecule?
Its kinase still bound, per cent of control is 2.5%.

What about the kinase still bound, per cent of control [34] of the same molecule?
The kinase still bound, per cent of control was 97%.

What about the kinase still bound, per cent of control [35] of the same molecule?
Its kinase still bound, per cent of control is 62%.

And the kinase still bound, per cent of control [36]?
The kinase still bound, per cent of control was 33%.

What about the kinase still bound, per cent of control [37] of the same molecule?
The kinase still bound, per cent of control was 34%.

What about the kinase still bound, per cent of control [38] of the same molecule?
Its kinase still bound, per cent of control is 86%.

What about the kinase still bound, per cent of control [39] of the same molecule?
The kinase still bound, per cent of control was 77%.

And the kinase still bound, per cent of control [40]?
The kinase still bound, per cent of control was 42%.

And the kinase still bound, per cent of control [41]?
Its kinase still bound, per cent of control is 100%.

What about the kinase still bound, per cent of control [42] of the same molecule?
Its kinase still bound, per cent of control is 79%.
